Molecular target: T1, ΔF508-CFTR (Homo sapiens, UniProt P13569, DEL508-508)
T1 construct: expressed in transfected cells
Experiment: Membrane potential optical assay for ΔF508-CFTR potentiation
Assay type: cell-based
Settings: NIH 3T3 cells
Source text: The assay utilizes fluorescent voltage sensing dyes to measure changes in membrane potential using a fluorescent plate reader (e.g., FLIPR III, Molecular Devices, Inc.) as a readout for increase in functional ΔF508-CFTR in NIH 3T3 cells. The driving force for the response is the creation of a chloride ion gradient in conjunction with channel activation by a single liquid addition step after the cells have previously been treated with compounds and subsequently loaded with a voltage sensing dye. To identify potentiators of ΔF508-CFTR, a double-addition HTS assay format was developed. This HTS assay utilizes fluorescent voltage sensing dyes to measure changes in membrane potential on the FLIPR III as a measurement for increase in gating (conductance) of ΔF508 CFTR in temperature-corrected ΔF508 CFTR NIH 3T3 cells. The driving force for the response is a Cl^− ion gradient in conjunction with channel activation with forskolin in a single liquid addition step using a fluorescent plate reader such as FLIPR III after the cells have previously been treated with potentiator compounds (or DMSO vehicle control) and subsequently loaded with a redistribution dye. Bath Solution #1: (in mM) NaCl 160, KCl 4.5, CaCl2 2, MgCl2 1, HEPES 10, pH 7.4 with NaOH. Chloride-free bath solution: Chloride salts in Bath Solution #1 (above) are substituted with gluconate salts. […]

T1 sequence (P13569 with tags, fused parts or gaps DEL508-508): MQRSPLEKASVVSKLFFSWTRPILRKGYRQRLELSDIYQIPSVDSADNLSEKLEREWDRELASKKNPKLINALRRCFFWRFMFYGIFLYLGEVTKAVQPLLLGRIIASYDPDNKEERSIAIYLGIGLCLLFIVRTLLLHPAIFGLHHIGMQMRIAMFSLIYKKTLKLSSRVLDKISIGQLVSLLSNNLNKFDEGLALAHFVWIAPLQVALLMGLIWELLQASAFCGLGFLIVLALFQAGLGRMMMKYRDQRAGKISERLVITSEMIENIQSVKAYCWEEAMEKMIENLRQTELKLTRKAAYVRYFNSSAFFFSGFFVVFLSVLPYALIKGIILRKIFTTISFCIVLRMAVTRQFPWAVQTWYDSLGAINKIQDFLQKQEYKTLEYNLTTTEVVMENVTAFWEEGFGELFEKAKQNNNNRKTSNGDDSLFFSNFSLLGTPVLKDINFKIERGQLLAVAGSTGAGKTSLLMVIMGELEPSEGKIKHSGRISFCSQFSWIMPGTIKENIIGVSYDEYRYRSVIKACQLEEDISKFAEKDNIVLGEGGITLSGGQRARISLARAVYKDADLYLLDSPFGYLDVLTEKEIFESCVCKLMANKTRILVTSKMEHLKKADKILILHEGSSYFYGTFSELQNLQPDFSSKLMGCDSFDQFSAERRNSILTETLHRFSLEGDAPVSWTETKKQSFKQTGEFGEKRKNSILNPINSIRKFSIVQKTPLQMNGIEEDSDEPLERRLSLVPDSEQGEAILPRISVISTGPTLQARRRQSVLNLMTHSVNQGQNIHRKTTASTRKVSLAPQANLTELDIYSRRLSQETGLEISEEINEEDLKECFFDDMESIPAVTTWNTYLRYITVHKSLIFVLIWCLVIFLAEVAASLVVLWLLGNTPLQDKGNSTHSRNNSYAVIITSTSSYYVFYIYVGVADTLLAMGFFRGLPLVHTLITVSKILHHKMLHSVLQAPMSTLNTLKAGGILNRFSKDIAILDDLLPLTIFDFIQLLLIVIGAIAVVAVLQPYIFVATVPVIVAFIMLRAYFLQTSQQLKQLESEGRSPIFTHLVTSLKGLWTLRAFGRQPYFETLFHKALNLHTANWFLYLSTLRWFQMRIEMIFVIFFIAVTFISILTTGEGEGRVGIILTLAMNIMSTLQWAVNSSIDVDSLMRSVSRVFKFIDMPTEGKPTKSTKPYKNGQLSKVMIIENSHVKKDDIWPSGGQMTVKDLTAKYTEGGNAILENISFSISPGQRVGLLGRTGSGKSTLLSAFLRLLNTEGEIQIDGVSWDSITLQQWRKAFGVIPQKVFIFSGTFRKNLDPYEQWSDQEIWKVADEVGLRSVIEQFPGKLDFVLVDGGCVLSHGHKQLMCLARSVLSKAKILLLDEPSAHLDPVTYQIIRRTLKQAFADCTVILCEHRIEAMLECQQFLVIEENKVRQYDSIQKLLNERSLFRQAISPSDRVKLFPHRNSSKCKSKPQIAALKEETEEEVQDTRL

- EC50: < 10 µM
SMILES: CC(C)(C)c1cc(C(C)(C)C)c(NC(=O)c2c[nH]c3ccccc3c2=O)cc1O [Compound 1, N-[2,4-bis(1,1-dimethylethyl)-5-hydroxyphenyl]-1,4-dihydro-4-oxoquinoline-3-carboxamide]
